Test system: HeLa cells
Format: cell-based
Experimental: We first evaluated cell toxicity of Pep-MD. Specifically, we quantified HeLa cell viability using CellTiter-Glo® Luminescent Cell Viability Assay kit in the presence of a series of concentration of Pep-MD, 0.1, 0.5 and 2 µM, in serum-free cell culture media. The kit can visualize the number of viable cells as chemiluminescence intensity based on quantitation of the ATP present, an indicator of metabolically active cells. As a positive control, we also evaluated TAT (GRKKRRQRRR in amino acid sequence).
The HeLa cell line was purchased from RIKEN cell bank (Tsukuba, Japan). HeLa cells were cultured in Dulbecco’s Eagle’s medium (DMEM, FUJIFILM Wako Pure Chemical, Japan) supplemented with inactivated 10% fetal bovine serum (FBS, Biosera, France) and 1% penicillin–streptomycin solution (FUJIFILM Wako Pure Chemical).
HeLa cells were seeded at a density of 8000 cells per well in 96 well plate (AGC Techno Glass, Shizuoka, Japan). […] Cell viability of each well was quantified with CellTiter-Glo® Luminescent Cell Viability Assay kit (Promega, Madison, WI, USA) and EnSpire™ microplate reader (PerkinElmer, Waltham, MA, USA) according to manufacturer’s instructions. The cell viability was calculated as the chemiluminescence intensity ratio of samples to that of […] without peptide.

Row | Sequence | Cell toxicity (HeLa cell viability) at 2.0 µM
1 | GRKKRRQRRR [TAT] | significant cell toxicity
2 | YRGWHCRGITKNGIIFDIKW [Pep-MD] | little toxicity

From publication PMC8137933, “Using molecular dynamics simulations to prioritize and understand AI-generated cell penetrating peptides” (Scientific Reports, 2021)
